Test results: patent publication US9067926B2, “Fluoromethyl-5,6-dihydro-4H-[1,3]OXAZINES” (F. Hoffmann-La Roche AG, priority 2012, dated 2015)

Experiments:
P-gp (human MDR1) = target: T1, P-gp (human MDR1) (Homo sapiens, UniProt P08183); assay: P-gp (P-Glycoprotein) bidirectional transcellular transport assay, LLC-PK1 and L-MDR1 cells; format: in vitro ADME; conditions: LLC-PK1 cells expressing human MDR1, PappBA/PappAB
T1 construct: host or cells: LLC-PK1 (porcine kidney epithelial cells)
Procedure: P-gp (P-Glycoprotein) Assay
Cell Lines and Vesicles Used for Transport Experiments
The MDR1 (human multidrug resistance protein 1) transfected cell lines were obtained from Dr. A. Schinkel, The Netherlands Cancer Institute (Amsterdam, The Netherlands). All cell lines were cultured on permeable inserts (Costar, 0.33 cm^2 area, pore size 3.0 μm, low density) at 4.5·10^5 cells/cm^2. Transport measurements were performed at day 4 after seeding. Tightness of the cell monolayer was controlled via the permeability of the extracellular marker lucifer yellow (10 μM).
In Vitro Transport Experiments
Bidirectional transcellular transport using LLC-PK1 and L-MDR1 LLC-PK1 cells exogenously expressing the human MDR1)
The method used for transport experiments were performed on a TECAN automated liquid handling system. Briefly, medium was removed from all compartments and the medium of receiver side was replaced with culture medium. The trans-cellular transport measurements were initiated by adding the substrate together with extracellular marker lucifer yellow to the donor side. Inhibitors were added to both sides (1 μM elacridar). […] The plates were incubated at 37° C. and 5% CO2 in a Liconic incubator. Samples were taken from the donor and the opposite (acceptor) side after 2 hours incubation. Concentrations of substrate in both compartments were determined by scintillation counting (digoxin) or by LC-MS/MS. […] In each experiment 3 different inserts were used for each condition and a mean was calculated.
Bidirectional transcellular transport using LLC-PK1 and L-MDR1 cells
For the transcellular transport, the following equation was used for data evaluation: […]
Where Papp, A, C0, and dQ/dt represent the apparent permeability, the filter surface area, the initial concentration, and the amount transported per time period, respectively.
Transport efflux ratios (ER) were calculated as follows: […]
Where PappBA is the permeability value in the basolateral-to-apical direction, and PappAB the permeability value in the apical-to-basolateral direction. Papp were not corrected for flux of the extracellular marker lucifer yellow, which was used to assess the quality of the cell mono layers.

[1] = Detection of glutathione conjugates (GSH); format: in vitro ADME, human; parameters: key: NF = in vitro no adduct formation relative to control; conditions: in vitro, relative to control
Source text: Detection of Glutathione Conjugates (GSH) The assay conditions for the detection of glutathione conjugates follow the procedure described by C. M. Dieckhaus et al. in Chem. Res. Toxicol. 2005, 18, 630-63.

Aβ40 in brain = assay: In vivo inhibition of Aβ40 in brain of wild-type mice; conditions: Mus musculus, po; 10 mg/kg p.o., brain Aβ40 after 4 h, female C57Bl/6J mice; read-out: in vivo effect, Percentage of control @ 10 mg/kg p.o
Procedure: In Vivo Experiments. […] The test compound was dissolved in 5% EtOH, 10% Solutol and was applied per os at 10 ml/kg. After 4 h the animals were sacrificed and brain and plasma were collected. The brain was cut into halves and immediately frozen on dry ice. Brain was used for measurement of Aβ40 and plasma was used for determination of compound exposure. […] Brain tissue was homogenized in 2% DEA buffer in a Roche […] (20'', 4000 rpm) and subsequently centrifuged for 1 h at 100'000 g. DEA was reduced to 0.2% in 50 mM NaCl and one half of the DEA lysate was passed over an Oasis Solid Phase extraction plate (Waters; Cat.Nr. 186000679) which had been activated with MeOH and equilibrated in dH2O (1 ml each). After washes in 10% and 30% MeOH (1 ml each) the AP-peptides were eluted in 0.8 ml 2% NH4OH in 90% MeOH. […] Aβ40 was determined by an AlphaLISA assay (Perkin Elmer). In a white 96well half-area microplate (Perkin Elmer Cat.Nr. 6005561), 20 μl of the reconstituted sample were mixed with 5 μl biotinylated BAP-24 (specific for C-terminus of Aβ40 (Brockhaus, M.; Grunberg, J.; Rohrig, S.; Loetscher, H.; Wittenburg, N.; Baumeister, R.; Jacobsen, […]. Caspase-mediated cleavage is not required for the activity of presenilins in amyloidogenesis and NOTCH signaling. […] The mix was incubated for 1 h at RT in the dark. Then 20 μl Streptavin-coated Donor Beads (Perkin Elmer Cat. Nr. 6760002, final dilution 1:125) were added and this final mix was incubated in the dark for another 30 min at r.t. before RFU was measured in an AlphaScreen Reader(Perkin Elmer Envision 2104).

[2] = target: T2, cathepsin D (from human liver) (Homo sapiens, UniProt P07339); assay: Cathepsin D fluorescent substrate kinetic assay; format: biochemical; conditions: pH 5.5
T2 construct: cathepsin D (from human liver, Calbiochem) diluted in assay buffer; purchased Calbiochem; host or cells: human liver
Source text: Cathepsin D and Cathepsin E Fluorescent Substrate Kinetic Assays
The MR121 fluorescence assays described below are based on the fact that MR121 forms a non-fluorescent ground state complex with tryptophan. In solution this formation occurs at millimolar concentrations of tryptophan. The mechanism can be used to design a generic biochemical assay for proteases. […] In absence of protease activity, the substrates remain intact and the MR121 fluorescence is reduced by the high local Trp-concentration. If the substrates are cleaved by the enzymes the MR121 fluorescence is recovered.
The fluorescent substrate cathepsin D and cathepsin E kinetic assays were performed at room temperature in 384-well microtiter plates (black with clear flat bottom, non binding surface plates from Corning) in a final volume of 51 μl. The test compounds were serially diluted in DMSO (15 concentrations, 1/3 dilution steps) and 1 μl of diluted compounds were mixed for 10 min with 40 μl of cathepsin D (from human liver, Calbiochem) diluted in assay buffer (100 mM sodium acetate, 0.05% BSA, pH 5.5; final concentration: 200 nM) or with 40 μl of recombinant human cathepsin E (R&D Systems) diluted in assay buffer (100 mM sodium acetate, 0.05% BSA, pH 4.5; final concentration: 0.01 nM). […] The slope in the linear range of the kinetic was calculated and the IC50 of the test compounds were determined using a four parameter equation for curve fitting.

T1 sequence (P08183 whole entry): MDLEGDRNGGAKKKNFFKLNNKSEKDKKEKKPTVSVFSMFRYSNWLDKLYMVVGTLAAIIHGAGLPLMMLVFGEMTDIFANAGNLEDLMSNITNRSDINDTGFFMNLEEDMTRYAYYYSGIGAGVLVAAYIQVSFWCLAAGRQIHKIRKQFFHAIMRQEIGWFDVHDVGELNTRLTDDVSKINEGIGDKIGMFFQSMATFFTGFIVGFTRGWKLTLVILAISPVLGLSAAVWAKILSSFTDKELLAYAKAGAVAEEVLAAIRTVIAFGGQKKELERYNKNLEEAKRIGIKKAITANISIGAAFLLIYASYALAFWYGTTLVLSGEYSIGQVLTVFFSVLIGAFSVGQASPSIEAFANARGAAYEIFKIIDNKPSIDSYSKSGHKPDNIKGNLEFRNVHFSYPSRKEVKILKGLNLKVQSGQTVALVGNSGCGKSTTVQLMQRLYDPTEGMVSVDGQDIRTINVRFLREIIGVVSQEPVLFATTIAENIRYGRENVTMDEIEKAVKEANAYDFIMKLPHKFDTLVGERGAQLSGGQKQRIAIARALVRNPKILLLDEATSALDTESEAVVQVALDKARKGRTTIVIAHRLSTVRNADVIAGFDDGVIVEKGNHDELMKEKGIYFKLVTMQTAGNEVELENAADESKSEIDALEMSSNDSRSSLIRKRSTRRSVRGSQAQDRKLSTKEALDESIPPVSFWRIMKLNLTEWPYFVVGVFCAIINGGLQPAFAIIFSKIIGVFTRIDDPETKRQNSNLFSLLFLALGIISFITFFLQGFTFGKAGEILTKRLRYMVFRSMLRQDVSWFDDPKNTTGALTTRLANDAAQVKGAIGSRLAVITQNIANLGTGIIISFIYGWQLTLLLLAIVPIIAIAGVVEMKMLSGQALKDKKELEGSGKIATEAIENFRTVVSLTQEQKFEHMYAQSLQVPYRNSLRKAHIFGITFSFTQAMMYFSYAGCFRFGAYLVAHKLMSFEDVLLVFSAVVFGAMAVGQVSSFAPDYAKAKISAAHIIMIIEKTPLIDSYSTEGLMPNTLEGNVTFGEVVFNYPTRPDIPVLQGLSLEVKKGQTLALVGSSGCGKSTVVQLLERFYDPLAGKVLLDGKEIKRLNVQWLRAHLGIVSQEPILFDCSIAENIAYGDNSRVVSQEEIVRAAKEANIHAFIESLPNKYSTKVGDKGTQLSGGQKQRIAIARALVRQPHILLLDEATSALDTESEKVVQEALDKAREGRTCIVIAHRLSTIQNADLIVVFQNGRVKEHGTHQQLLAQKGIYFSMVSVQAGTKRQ
T2 sequence (P07339 65-412): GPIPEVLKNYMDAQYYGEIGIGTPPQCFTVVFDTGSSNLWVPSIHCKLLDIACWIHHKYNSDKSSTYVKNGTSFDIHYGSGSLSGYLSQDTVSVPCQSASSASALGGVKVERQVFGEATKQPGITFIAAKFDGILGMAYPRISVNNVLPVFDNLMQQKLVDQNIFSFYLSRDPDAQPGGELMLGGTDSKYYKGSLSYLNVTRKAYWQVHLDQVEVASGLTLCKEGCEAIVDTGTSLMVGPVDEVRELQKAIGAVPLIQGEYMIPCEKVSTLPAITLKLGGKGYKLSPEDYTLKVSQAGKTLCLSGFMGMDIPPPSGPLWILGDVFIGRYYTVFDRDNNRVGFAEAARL

| efflux ratio at 2 h (P-gp (human MDR1)) | GSH human (glutathione adduct formation) [1] | IC50 [2] [µM] | SMILES | response vs control in vivo at 10 mg/kg (Aβ40 in brain) [%] |
| --- | --- | --- | --- | --- |
| 1.82 | NF | > 200 | C[C@@]1(c2cc(NC(=O)c3ccc(Cl)cn3)ccc2F)C[C@@H](C(F)(F)F)OC(N)=N1 [Example 2, N-(3-((4S,6S)-2-amino-4-methyl-6-(trifluoromethyl)-5,6-dihydro-4H-1,3-oxazin-4-yl)-4-fluorophenyl)-5-chloropicolinamide] | 93 |
| 2.3 | NF | > 200 | C[C@@]1(c2cc(NC(=O)c3ccc(OCF)cn3)ccc2F)C[C@@H](C(F)(F)F)OC(N)=N1 [Example 11, N-(3-((4S,6S)-2-Amino-4-methyl-6-(trifluoromethyl)-5,6-dihydro-4H-1,3-oxazin-4-yl)-4-fluorophenyl)-5-(fluoromethoxy)picolinamide] | 87 |
| 2.63 | NF | 179 | CC#CCOc1cnc(C(=O)Nc2ccc(F)c([C@]3(C)C[C@@H](C(F)(F)F)OC(N)=N3)c2)cn1 [Example 22, N-(3-((4S,6S)-2-Amino-4-methyl-6-(trifluoromethyl)-5,6-dihydro-4H-1,3-oxazin-4-yl)-4-fluorophenyl)-5-(but-2-ynyloxy)pyrazine-2-carboxamide] | 83 |
| 1.5 | NF | > 200 | NC1=N[C@](CF)(c2cc(NC(=O)c3ccc(OCF)cn3)ccc2F)C[C@@H](C(F)(F)F)O1 [Example 35, N-(3-((4S,6S)-2-Amino-4-(fluoromethyl)-6-(trifluoromethyl)-5,6-dihydro-4H-1,3-oxazin-4-yl)-4-fluorophenyl)-5-(fluoromethoxy)picolinamide] | 74 |
